From patent US20170334899A1, “AMINO-SUBSTITUTED ISOTHIAZOLES” (Bayer Pharma Aktiengesellschaft, priority 2014, published 2017)

biological target: T1, human kinase Mps-1 (Homo sapiens, UniProt P33981); test: Mps-1 kinase assay (TR-FRET); type: biochemical; details: Mps-1 TR-FRET kinase assay; avg; read-out: Mps1 avg (IC50 [mol/l])
T1 construct: N-terminally GST-tagged human full length recombinant Mps-1 kinase; GST (N); purchased Invitrogen, Karslruhe, Germany PV4071
T1 sequence (P33981 1-857): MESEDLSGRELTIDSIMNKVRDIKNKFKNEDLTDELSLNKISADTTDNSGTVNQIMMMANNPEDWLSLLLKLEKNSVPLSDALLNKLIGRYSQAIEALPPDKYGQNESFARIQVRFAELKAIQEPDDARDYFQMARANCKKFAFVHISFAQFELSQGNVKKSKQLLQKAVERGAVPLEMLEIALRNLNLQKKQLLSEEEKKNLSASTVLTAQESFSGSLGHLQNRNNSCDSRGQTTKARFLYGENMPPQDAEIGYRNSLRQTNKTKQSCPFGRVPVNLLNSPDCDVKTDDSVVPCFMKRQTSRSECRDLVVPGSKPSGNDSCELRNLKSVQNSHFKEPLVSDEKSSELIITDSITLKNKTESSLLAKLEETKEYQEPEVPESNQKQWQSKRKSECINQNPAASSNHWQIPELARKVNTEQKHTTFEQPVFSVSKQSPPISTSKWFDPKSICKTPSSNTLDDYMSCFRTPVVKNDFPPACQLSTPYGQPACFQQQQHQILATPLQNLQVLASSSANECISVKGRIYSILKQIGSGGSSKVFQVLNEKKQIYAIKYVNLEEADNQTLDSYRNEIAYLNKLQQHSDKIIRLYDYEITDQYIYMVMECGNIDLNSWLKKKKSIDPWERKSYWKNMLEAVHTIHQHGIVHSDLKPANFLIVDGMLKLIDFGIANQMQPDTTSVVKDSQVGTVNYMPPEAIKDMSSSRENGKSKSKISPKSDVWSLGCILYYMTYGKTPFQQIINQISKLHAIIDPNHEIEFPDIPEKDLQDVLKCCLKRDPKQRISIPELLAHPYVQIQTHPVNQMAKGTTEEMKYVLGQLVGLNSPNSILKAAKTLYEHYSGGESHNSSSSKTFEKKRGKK
In short: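 GST-tagged full-length recombinant human Mps-1 (~0.5 nM) pre-incubated 15 min with compound, then reacted 60 min at 22 °C with 10 μM ATP and 1 μM biotinylated peptide in Hepes pH 7.7 buffer. EDTA-stopped; TR-FRET (Eu anti-phospho-Ser/Thr to SA-XLent) 665/620 nm ratio normalised to no-inhibitor and no-enzyme controls.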

| SMILES | IC50 [µM] |
| --- | --- |
| Cc1nsc(Nc2cnc3ccccc3n2)c1C(=O)Nc1cccc(NS(=O)(=O)C2CCN(CC(F)F)CC2)c1 [Example 282, N-[3-({[1-(2,2-difluoroethyl)piperidin-4-yl]sulfonyl}amino)phenyl]-3-methyl-5-(quinoxalin-2-ylamino)-1,2-thiazole-4-carboxamide] | > 20 |
| Cc1nsc(Nc2cncc(C(F)(F)F)n2)c1C(=O)Nc1ccc(OCCCO)nc1 [Example 278, N-[6-(3-hydroxypropoxy)pyridin-3-yl]-3-methyl-5-{[6-(trifluoromethyl)pyrazin-2-yl]amino}-1,2-thiazole-4-carboxamide] | > 20 |
| Cc1nsc(Nc2cc(C#N)ccn2)c1C(=O)Nc1ccc(OC2CCN(C(=O)OC(C)(C)C)CC2)nc1 [Example 23, tert-Butyl 4-({5-[({5-[(4-cyanopyridin-2-yl)amino]-3-methyl-1,2-thiazol-4-yl}-carbonyl)amino]pyridin-2-yl}oxy)piperidine-1-carboxylate] | 17 |
| Cc1nsc(Nc2cnc3ccccc3n2)c1C(=O)Nc1cccc(NS(=O)(=O)C2CCCN(C(=O)OCc3ccccc3)C2)c1 (stereo not shown) [Example 291, benzyl 3-{[3-({[3-methyl-5-(quinoxalin-2-ylamino)-1,2-thiazol-4-yl]carbonyl}amino)phenyl]sulfamoyl} piperidine-1-carboxylate] | > 20 |
| Cc1nsc(Nc2cc(C#N)ccn2)c1C(=O)Nc1ccc(OC2CCN(CC(F)(F)F)CC2)nc1 [Example 25, 5-[(4-Cyanopyridin-2-yl)amino]-3-methyl-N-(6-{[1-(2,2,2-trifluoroethyl)piperidin-4-yl]oxy}pyridin-3-yl)-1,2-thiazole-4-carboxamide] | ≥ 20 |
| Cc1nsc(Nc2cnc(C(F)(F)F)cn2)c1C(=O)Nc1ccc(OCCCNCC(F)F)nc1 [Example 293, N-(6-{3-[(2,2-difluoroethyl)amino]propoxy}pyridin-3-yl)-3-methyl-5-{[5-(trifluoromethyl)pyrazin-2-yl]amino}-1,2-thiazole-4-carboxamide] | > 20 |
| Cc1nsc(Nc2cncc(C(F)(F)F)n2)c1C(=O)Nc1ccc(OCCO)nc1 [Example 276, N-[6-(2-hydroxyethoxy)pyridin-3-yl]-3-methyl-5-{[6-(trifluoromethyl)pyrazin-2-yl]amino}-1,2-thiazole-4-carboxamide] | > 20 |
| Cc1nsc(Nc2cc(C#N)ccn2)c1C(=O)Nc1ccc(OC2CCN(CC(F)F)CC2)nc1 [Example 263, 5-[(4-cyanopyridin-2-yl)amino]-N-(6-{[1-(2,2-difluoroethyl)piperidin-4-yl]oxy}pyridin-3-yl)-3-methyl-1,2-thiazole-4-carboxamide] | > 20 |
| COC(=O)CCc1cccc(NC(=O)c2c(C)nsc2Nc2cnc3ccccc3n2)c1 [Example 257, methyl 3-[3-({[3-methyl-5-(quinoxalin-2-ylamino)-1,2-thiazol-4-yl]carbonyl}amino)phenyl]propanoate] | > 20 |
| Cc1nsc(Nc2cnc3ccccc3n2)c1C(=O)Nc1cccc(NS(=O)(=O)C2CCN(CC(F)(F)F)C2)c1 (stereo not shown) [Example 289, 3-methyl-5-(quinoxalin-2-ylamino)-N-[3-({[1-(2,2,2-trifluoroethyl)pyrrolidin-3-yl]sulfonyl}amino)phenyl]-1,2-thiazole-4-carboxamide] | > 20 |
| Cc1nsc(Nc2cnc(C(F)(F)F)cn2)c1C(=O)Nc1ccc(OC2CCN(C(CF)CF)C2)nc1 (stereo not shown) [Example 313, N-(6-{[1-(1,3-difluoropropan-2-yl)pyrrolidin-3-yl]oxy}pyridin-3-yl)-3-methyl-5-{[5-(trifluoromethyl)pyrazin-2-yl]amino}-1,2-thiazole-4-carboxamide] | ≥ 20 |
| Cc1nsc(Nc2cnc(C(F)(F)F)cn2)c1C(=O)Nc1ccc(OCCNCCF)nc1 [Example 321, N-(6-{2-[(2-fluoroethyl)amino]ethoxy}pyridin-3-yl)-3-methyl-5-{[5-(trifluoromethyl)pyrazin-2-yl]amino}-1,2-thiazole-4-carboxamide] | ≥ 20 |

More lines, now with the values ahead:

| IC50 [µM] | SMILES |
| --- | --- |
| > 20 | Cc1nsc(Nc2cnc(C(F)(F)F)cn2)c1C(=O)Nc1ccc(C(=O)NC2CCN(CC(F)F)CC2)cc1 [Example 259, N-(4-{[1-(2,2-difluoroethyl)piperidin-4-yl]carbamoyl}phenyl)-3-methyl-5-{[5-(trifluoromethyl)pyrazin-2-yl]amino}-1,2-thiazole-4-carboxamide] |
| > 20 | Cc1nsc(Nc2cnc(C(F)(F)F)cn2)c1C(=O)Nc1ccc(N(C)C)c(OCCCN(C)CC(F)(F)F)c1 [Example 299, N-[4-(dimethylamino)-3-{3-[methyl(2,2,2-trifluoroethyl)amino]propoxy}phenyl]-3-methyl-5-{[5-(trifluoromethyl)pyrazin-2-yl]amino}-1,2-thiazole-4-carboxamide] |
| ≥ 20 | Cc1nsc(Nc2cnc(C(F)(F)F)cn2)c1C(=O)Nc1ccc(OCCNCC(F)(F)F)nc1 [Example 322, 3-methyl-N-(6-{2-[(2,2,2-trifluoroethyl)amino]ethoxy}pyridin-3-yl)-5-{[5-(trifluoromethyl)pyrazin-2-yl]amino}-1,2-thiazole-4-carboxamide] |
| > 20 | Cc1nsc(Nc2cnc(C(F)(F)F)cn2)c1C(=O)Nc1ccc(F)c(OC2CCN(CC(F)F)CC2)c1 [Example 265, N-(3-{[1-(2,2-difluoroethyl)piperidin-4-yl]oxy}-4-fluorophenyl)-3-methyl-5-{[5-(trifluoromethyl)pyrazin-2-yl]amino}-1,2-thiazole-4-carboxamide] |
| > 20 | Cc1nsc(Nc2cnc(C(F)(F)F)cn2)c1C(=O)Nc1ccc(C(=O)N2CCN(CC(F)(F)F)CC2)cc1 [Example 260, 3-methyl-N-(4-{[4-(2,2,2-trifluoroethyl)piperazin-1-yl]carbonyl}phenyl)-5-{[5-(trifluoromethyl)pyrazin-2-yl]amino}-1,2-thiazole-4-carboxamide] |
| > 20 | Cc1nsc(Nc2cnc(C(F)(F)F)cn2)c1C(=O)Nc1ccc(OC2CCN(CCF)C2)nc1 (stereo not shown) [Example 295, N-(6-{[1-(2-fluoroethyl)pyrrolidin-3-yl]oxy}pyridin-3-yl)-3-methyl-5-{[5-(trifluoromethyl)pyrazin-2-yl]amino}-1,2-thiazole-4-carboxamide] |
| ≥ 20 | Cc1nsc(Nc2cnc(C(F)(F)F)cn2)c1C(=O)Nc1ccc(F)c(OCC2CCN(CC(F)F)C2)c1 (stereo not shown) [Example 316, N-(3-{[1-(2,2-difluoroethyl)pyrrolidin-3-yl]methoxy}-4-fluorophenyl)-3-methyl-5-{[5-(trifluoromethyl)pyrazin-2-yl]amino}-1,2-thiazole-4-carboxamide] |
| > 20 | Cc1nsc(Nc2cncc(C(F)(F)F)n2)c1C(=O)Nc1ccc(C(=O)N2CCN(CC(F)F)CC2)cc1 [Example 273, N-(4-{[4-(2,2-difluoroethyl)piperazin-1-yl]carbonyl}phenyl)-3-methyl-5-{[6-(trifluoromethyl)pyrazin-2-yl]amino}-1,2-thiazole-4-carboxamide] |
| > 20 | Cc1nsc(Nc2cnc(C(F)(F)F)cn2)c1C(=O)Nc1ccc(OC2CCN(CCC(F)(F)F)C2)nc1 (stereo not shown) [Example 298, 3-methyl-5-{[5-(trifluoromethyl)pyrazin-2-yl]amino}-N-(6-{[1-(3,3,3-trifluoropropyl)pyrrolidin-3-yl]oxy}pyridin-3-yl)-1,2-thiazole-4-carboxamide] |
| > 20 | Cc1nsc(Nc2cncc(C(F)(F)F)n2)c1C(=O)Nc1ccc(C(=O)N2CCN(CCF)CC2)cc1 [Example 274, N-(4-{[4-(2-fluoroethyl)piperazin-1-yl]carbonyl}phenyl)-3-methyl-5-{[6-(trifluoromethyl)pyrazin-2-yl]amino}-1,2-thiazole-4-carboxamide] |
| > 20 | Cc1nsc(Nc2cnc(C(F)(F)F)cn2)c1C(=O)Nc1ccc(F)c(OC2CCN(CC(F)(F)F)CC2)c1 [Example 264, N-(4-fluoro-3-{[1-(2,2,2-trifluoroethyl)piperidin-4-yl]oxy}phenyl)-3-methyl-5-{[5-(trifluoromethyl)pyrazin-2-yl]amino}-1,2-thiazole-4-carboxamide] |
| 12 | Cc1nsc(Nc2cnc(C(F)(F)F)cn2)c1C(=O)Nc1ccc(OC2CCN(CC(F)(F)F)C2)nc1 (stereo not shown) [Example 297, 3-methyl-N-(6-{[1-(2,2,2-trifluoroethyl)pyrrolidin-3-yl]oxy}pyridin-3-yl)-5-{[5-(trifluoromethyl)pyrazin-2-yl]amino}-1,2-thiazole-4-carboxamide] |
| ≥ 20 | Cc1nsc(Nc2cnc(C(F)(F)F)cn2)c1C(=O)Nc1ccc(F)c(OCCCNCCC(F)(F)F)c1 [Example 307, N-(4-fluoro-3-{3-[(3,3,3-trifluoropropyl)amino]propoxy}phenyl)-3-methyl-5-{[5-(trifluoromethyl)pyrazin-2-yl]amino}-1,2-thiazole-4-carboxamide] |
